Data: article PMC5468338, “Novel Class IIa-Selective Histone Deacetylase Inhibitors Discovered Using an in Silico Virtual Screening Approach” (Scientific Reports, 2017)

Target: HDAC4 (Homo sapiens, UniProt P56524)
Assay: HDAC fluorometric activity assay, HDAC4
Conditions: tested at 40 μM, SAHA as reference
From the text: A fluorogenic based assay[54] was used to validate the 40 candidate compounds.

Sequence of HDAC4 (P56524 whole entry): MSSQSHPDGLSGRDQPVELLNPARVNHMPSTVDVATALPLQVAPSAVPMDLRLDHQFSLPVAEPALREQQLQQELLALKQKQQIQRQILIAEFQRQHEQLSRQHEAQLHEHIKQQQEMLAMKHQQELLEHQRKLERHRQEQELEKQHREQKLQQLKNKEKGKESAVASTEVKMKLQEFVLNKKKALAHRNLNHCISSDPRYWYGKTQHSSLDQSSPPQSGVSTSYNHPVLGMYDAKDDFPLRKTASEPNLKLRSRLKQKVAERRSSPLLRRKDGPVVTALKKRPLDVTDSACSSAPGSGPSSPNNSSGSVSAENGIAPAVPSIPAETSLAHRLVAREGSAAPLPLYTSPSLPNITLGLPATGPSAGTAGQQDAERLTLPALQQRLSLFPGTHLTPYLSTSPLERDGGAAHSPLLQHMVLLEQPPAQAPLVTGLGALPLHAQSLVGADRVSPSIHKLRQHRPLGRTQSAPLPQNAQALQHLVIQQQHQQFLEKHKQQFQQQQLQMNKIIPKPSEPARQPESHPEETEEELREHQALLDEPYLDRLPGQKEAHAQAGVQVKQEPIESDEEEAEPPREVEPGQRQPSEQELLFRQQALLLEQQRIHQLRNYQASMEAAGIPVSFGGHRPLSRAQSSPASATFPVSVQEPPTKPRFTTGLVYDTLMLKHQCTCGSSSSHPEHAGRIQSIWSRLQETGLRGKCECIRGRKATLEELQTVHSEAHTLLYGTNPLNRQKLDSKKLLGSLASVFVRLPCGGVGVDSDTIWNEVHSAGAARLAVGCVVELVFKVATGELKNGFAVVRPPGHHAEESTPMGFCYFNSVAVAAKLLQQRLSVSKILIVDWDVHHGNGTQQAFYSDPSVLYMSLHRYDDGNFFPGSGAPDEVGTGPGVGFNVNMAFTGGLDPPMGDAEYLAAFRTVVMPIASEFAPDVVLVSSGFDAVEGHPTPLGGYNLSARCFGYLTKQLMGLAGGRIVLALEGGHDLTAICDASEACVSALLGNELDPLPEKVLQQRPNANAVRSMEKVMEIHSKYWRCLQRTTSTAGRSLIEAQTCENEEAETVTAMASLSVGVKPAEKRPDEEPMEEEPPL

O=C(C=Cc1ccc(O)c(O)c1)c1ccc(O)c(O)c1O [Compound A93087]
HDAC4 inhibitory activity in initial screen compared to SAHA: significantly higher inhibitory activities
